Data as given in PubChem BioAssay AID264 (DTP/NCI, 2004).
“And” between values parts separate entries of the source, which are not always exact repeats. Equal entries are not always repeated. Results filed as inconclusive are left out. Numbered stars: 1 amine (or outer) side, 2 acyl side, 3 side chain; on linkers, the order of the positions; unused ones are H or OH. Bridge positions count the residues as written; N and C are the ends. Square brackets hold non-standard residues; d marks the D form. Peptide text beside a SMILES is read from it. I, II: the chains in the order shown. Actinocin(1to9) = Cc1c2oc3c(C)ccc(C(=O)[*:2])c3nc-2c(C(=O)[*:1])c(N)c1=O; NMeV = CN[CH](C(=O)O)C(C)C; Aze = O=C(O)[CH]1CCN1; Sar = CNCC(=O)O

Test system: nude mice, LX-1 lung xenograft intrarenal, tumor weight T/C
Test: NCI In Vivo Anticancer Drug Screen. Data for tumor model Human Lung LX-1 Xenograft (intrarenal inoculation) in NU/NU Swiss (nude) mice
Details: endpoint: mean tumor weight change, higher = larger tumour
In short: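 Activity was scored by measuring tumors in treated animals and in vehicle controls, then reporting the treated result as a fraction of the control result.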

[1] = dose: 50.0 mg/kg/injection, schedule: Q01DX010 (sc), vehicle: saline
[2] = dose: 100.0 mg/kg/injection, schedule: Q01DX010 (sc), vehicle: saline
[3] = dose: 200.0 mg/kg/injection, schedule: Q04DX003 (sc), vehicle: saline with Tween-80
[4] = dose: 400.0 mg/kg/injection, schedule: Q04DX003 (sc), vehicle: saline with Tween-80
[5] = dose: 300.0 mg/kg/injection, schedule: Q04DX003 (sc), vehicle: Klucel (hydroxypropylcellulose) (HPC)
[6] = dose: 600.0 mg/kg/injection, schedule: Q04DX003 (sc), vehicle: Klucel (hydroxypropylcellulose) (HPC)
[7] = dose: 1200.0 mg/kg/injection, schedule: Q04DX003 (sc), vehicle: Klucel (hydroxypropylcellulose) (HPC)
[8] = dose: 25.0 mg/kg/injection, schedule: Q01DX010 (sc), vehicle: Klucel (hydroxypropylcellulose) (HPC)
[9] = dose: 100.0 mg/kg/injection, schedule: Q01DX010 (sc), vehicle: Klucel (hydroxypropylcellulose) (HPC)

In the case of `O=C1N[C@@H]([C@H]2CC[C@H](Cl)CN2)C(=O)N[C@H]1[C@H]1CC[C@H](Cl)CN1`, the T/C (dose: 0.63 mg/kg/injection, schedule: Q01DX010 (sc), vehicle: water) is reported as 124 % of control, the T/C (dose: 1.25 mg/kg/injection, schedule: Q01DX010 (sc), vehicle: water) is reported as 98 % of control and the T/C (dose: 5.0 mg/kg/injection, schedule: Q01DX010 (sc), vehicle: water) is reported as 22 % of control. The T/C (dose: 5.0 mg/kg/injection, schedule: Q04DX003 (sc), vehicle: water) was 70 % of control and the T/C (dose: 10.0 mg/kg/injection, schedule: Q04DX003 (sc), vehicle: water) was 58 % of control.
For `CC(=O)O[C@@H]1CO[C@H]2O[C@H]3[C@@H](C(C=O)=C[C@H](O)[C@@H]4C5=C(C(C)C)CC[C@]5(C)CC[C@@]34C)[C@@]2(O)C1=O`, the T/C (dose: 100.0 mg/kg/injection, schedule: Q04DX003 (sc), vehicle: Klucel (hydroxypropylcellulose) (HPC)) was 94 % of control and the T/C (dose: 400.0 mg/kg/injection, schedule: Q04DX003 (sc), vehicle: Klucel (hydroxypropylcellulose) (HPC)) was 54 % of control.
For `C(CSC1=NCCN1)CSC1=NCCN1`, the T/C [1] was 156 % of control and the T/C [2] was 81 % of control.
With `Cc1c2oc3c(C)ccc(C(=O)NC4C(=O)NC(C(C)C)C(=O)N5CCCC5C(=O)N(C)CC(=O)N(C)C(C(C)C)C(=O)OC4C)c3nc-2c(C(=O)NC2C(=O)NC(C(C)C)C(=O)N3CCC3C(=O)N(C)CC(=O)N(C)C(C(C)C)C(=O)OC2C)c(N)c1=O` (stereo not given) (I: TV[Aze][Sar][NMeV] / II: TVP[Sar][NMeV]; ester I:1-I:C, II:1-II:C; linker I:N-II:N via Actinocin(1to9); configuration not given here) the T/C (dose: 0.25 mg/kg/injection, schedule: Q04DX003 (sc), vehicle: saline + alcohol) was 58 % of control, the T/C (dose: 0.5 mg/kg/injection, schedule: Q04DX003 (sc), vehicle: saline + alcohol) was 44 % of control and the T/C (dose: 1.0 mg/kg/injection, schedule: Q04DX003 (sc), vehicle: saline + alcohol) was 29 % of control.
With `O/N=C/c1ccccc1O.O/N=C/c1ccccc1O.[Cu]` the T/C (dose: 100.0 mg/kg/injection, schedule: Q04DX003 (sc), vehicle: saline with Tween-80) was 72 % of control, the T/C [3] was 67 % of control and 72 % of control and the T/C [4] was 93 % of control.
For `C[C@]12CCC(=O)C=C1CC[C@@H]1[C@@H]2C(=O)C[C@@]2(C)[C@H]1CC[C@]2(O)C(=O)CO`, the T/C [5] was 38 % of control, the T/C [6] was 34 % of control and the T/C [7] was 52 % of control.
With `C1CN2CCC1CC2` the T/C (dose: 4.69 mg/kg/injection, schedule: Q04DX003 (sc), vehicle: saline with Tween-80) was 96 % of control, the T/C (dose: 9.38 mg/kg/injection, schedule: Q04DX003 (sc), vehicle: saline with Tween-80) was 73 % of control and the T/C (dose: 18.75 mg/kg/injection, schedule: Q04DX003 (sc), vehicle: saline with Tween-80) was 68 % of control.
For `N#CC(C#N)=C/C=C/c1cccc([N+](=O)[O-])c1`, the T/C [8] was 90 % of control, the T/C (dose: 50.0 mg/kg/injection, schedule: Q01DX010 (sc), vehicle: Klucel (hydroxypropylcellulose) (HPC)) was 83 % of control and the T/C [9] was 69 % of control. The T/C (dose: 400.0 mg/kg/injection, schedule: Q01DX010 (sc), vehicle: Klucel (hydroxypropylcellulose) (HPC)) was 84 % of control and the T/C (dose: 800.0 mg/kg/injection, schedule: Q01DX010 (sc), vehicle: Klucel (hydroxypropylcellulose) (HPC)) was 42 % of control.
For `CCOC(=O)Nc1cc2c(c(N)n1)N=C(CN(C)c1ccccc1)CN2`, the T/C (dose: 12.5 mg/kg/injection, schedule: Q01DX010 (sc), vehicle: Klucel (hydroxypropylcellulose) (HPC)) was 166 % of control, the T/C [8] was 186 % of control and the T/C [9] was 103 % of control.
With `CC1(C)OC2C(COC(=O)c3ccc([N+](=O)[O-])cc3)OC(NC(=O)N(CCCl)N=O)C2O1` (stereo not given) the T/C (dose: 75.0 mg/kg/injection, schedule: Q04DX003 (sc), vehicle: saline with Tween-80) was 84 % of control, the T/C (dose: 150.0 mg/kg/injection, schedule: Q04DX003 (sc), vehicle: saline with Tween-80) was 43 % of control and the T/C (dose: 300.0 mg/kg/injection, schedule: Q04DX003 (sc), vehicle: saline with Tween-80) was 41 % of control. For the same compound, the T/C (dose: 600.0 mg/kg/injection, schedule: Q04DX003 (sc), vehicle: saline with Tween-80) was 27 % of control.
For `CCN1/C(=C/C=C/C=C/c2sc3ccccc3[n+]2CC)Sc2ccccc21`, the T/C (dose: 1.5 mg/kg/injection, schedule: Q04DX003 (sc), vehicle: saline) was 57 % of control.
In the case of `CN(C)CC(Cl)CCl` (stereo not given), the T/C (dose: 300.0 mg/kg/injection, schedule: Q04DX003 (sc), vehicle: saline) is reported as 49 % of control.
For `C=CS(C=C)=NS(=O)(=O)c1ccc(C)cc1`, the T/C (dose: 18.75 mg/kg/injection, schedule: Q04DX003 (sc), vehicle: Klucel (hydroxypropylcellulose) (HPC)) was 108 % of control, the T/C (dose: 37.5 mg/kg/injection, schedule: Q04DX003 (sc), vehicle: Klucel (hydroxypropylcellulose) (HPC)) was 163 % of control and the T/C (dose: 75.0 mg/kg/injection, schedule: Q04DX003 (sc), vehicle: Klucel (hydroxypropylcellulose) (HPC)) was 71 % of control.
With `CC(=O)Oc1c(C)[nH]ccc1=O` the T/C (dose: 300.0 mg/kg/injection, schedule: Q04DX003 (sc), vehicle: suspension in saline) was 73 % of control and the T/C (dose: 600.0 mg/kg/injection, schedule: Q04DX003 (sc), vehicle: suspension in saline) was 65 % of control.
For `CC1CN1P1(N2CC2C)=NP(N2CC2C)(N2CC2C)=NP(N2CC2C)(N2CC2C)=N1` (stereo not given), the T/C [1] was 47 % of control and 60 % of control and 67 % of control and the T/C [2] was 14 % of control and 15 % of control and 25 % of control.
For `ClC1=C(Cl)C(Cl)=C(Cl)C1=Cc1ccccc1`, the T/C (dose: 50.0 mg/kg/injection, schedule: Q04DX003 (sc), vehicle: saline with Tween-80) was 96 % of control, the T/C [3] was 91 % of control and the T/C [4] was 105 % of control.
For `COc1cc([C@@H]2c3cc4c(c(O)c3C[C@H]3COC(=O)[C@@H]32)OCO4)cc(OC)c1OC`, the T/C (dose: 0.25 mg/kg/injection, schedule: Q01DX010 (sc), vehicle: saline) was 91 % of control, the T/C (dose: 0.5 mg/kg/injection, schedule: Q01DX010 (sc), vehicle: saline) was 50 % of control and the T/C (dose: 1.0 mg/kg/injection, schedule: Q01DX010 (sc), vehicle: saline) was 58 % of control. The T/C (dose: 2.0 mg/kg/injection, schedule: Q01DX010 (sc), vehicle: saline) was 71 % of control and 73 % of control, the T/C (dose: 4.0 mg/kg/injection, schedule: Q01DX010 (sc), vehicle: saline) was 117 % of control and the T/C (dose: 8.0 mg/kg/injection, schedule: Q01DX010 (sc), vehicle: saline) was 168 % of control.
With `Clc1ccc(CN2COc3c(ccc4cccnc34)C2)cc1Cl` the T/C (dose: 100.0 mg/kg/injection, schedule: Q01DX010 (sc), vehicle: saline with Tween-80) was 110 % of control, the T/C (dose: 200.0 mg/kg/injection, schedule: Q01DX010 (sc), vehicle: saline with Tween-80) was 87 % of control and the T/C (dose: 400.0 mg/kg/injection, schedule: Q01DX010 (sc), vehicle: saline with Tween-80) was 97 % of control. For the same compound, the T/C (dose: 800.0 mg/kg/injection, schedule: Q01DX010 (sc), vehicle: saline with Tween-80) was 110 % of control.
For `Cc1ccc(C2NC(=S)N3C(c4ccc(C)cc4)NC(=S)N23)cc1` (stereo not given), the T/C [5] was 64 % of control, the T/C [6] was 66 % of control and the T/C [7] was 80 % of control. For the same compound, the T/C (dose: 2400.0 mg/kg/injection, schedule: Q04DX003 (sc), vehicle: Klucel (hydroxypropylcellulose) (HPC)) was 65 % of control.
`COc1cccc2c1C(=O)c1c(O)c3c(c(O)c1C2=O)C[C@@](O)(C(=O)CO)C[C@@H]3OC1CC(N)C(OC)C(C)O1` (stereo not given in full) was tested, and the T/C (dose: 0.75 mg/kg/injection, schedule: Q01DX010 (sc), vehicle: saline) was 29 % of control and the T/C (dose: 3.0 mg/kg/injection, schedule: Q01DX010 (sc), vehicle: saline) was 14 % of control.
`O=C(O)c1ccc(C(=O)O)c(C(=O)O)c1.[NH-]C1CCCCC1[NH-].[Pt+2]` was tested, and the T/C (dose: 3.12 mg/kg/injection, schedule: Q01DX010 (sc), vehicle: sodium bicarbonate) was 101 % of control and the T/C (dose: 6.25 mg/kg/injection, schedule: Q01DX010 (sc), vehicle: sodium bicarbonate) was 74 % of control.
With `O=C1NC2(CCCCC2)C(=O)N1CCN(CCCl)CCCl` the T/C (dose: 4.0 mg/kg/injection, schedule: Q01DX010 (sc), vehicle: suspension in saline) was 524 % of control, the T/C (dose: 6.0 mg/kg/injection, schedule: Q01DX010 (sc), vehicle: saline) was 85 % of control and the T/C (dose: 6.0 mg/kg/injection, schedule: Q01DX010 (sc), vehicle: suspension in saline) was 39 % of control and 58 % of control. For the same compound, the T/C (dose: 8.0 mg/kg/injection, schedule: Q01DX010 (sc), vehicle: suspension in saline) was 244 % of control, the T/C (dose: 12.0 mg/kg/injection, schedule: Q01DX010 (sc), vehicle: saline) was 31 % of control and the T/C (dose: 16.0 mg/kg/injection, schedule: Q01DX010 (sc), vehicle: suspension in saline) was 115 % of control. For the same compound, the T/C (dose: 32.0 mg/kg/injection, schedule: Q01DX010 (sc), vehicle: suspension in saline) was 63 % of control.
